Series [1] in a line: Inhibition of Bovine heart ATP synthase assessed as inhibition constant by Michaelis-Menten plot analysis. Set-up: species or system Bos taurus. To be noted: for pKi: read-out: Ki.
Series [2] deals with Trypanosoma brucei rhodesiense. Kind of series: Antitrypanosomal activity against Trypanosoma brucei rhodesiense STIB 900. The class given is functional, organism-based.
Series [3] relates to Lipid bilayer. Kind of series: Disruption of membrane integrity in bacterial cell membrane mimic POPC/POPG LUVs assessed as calcein leakage at 500 nM measured for 1 mins by fluorescence spectroscopy analysis.
The nature of series [4]: Cytotoxicity against rat L6 cells assessed as cell viability incubated for 72 hrs by CCK-8 assay.
The subject of series [5] is Plasmodium falciparum. Kind of series: Antiplasmodial activity against Plasmodium falciparum NF54 incubated for 48 hrs. Format: functional, organism-based. Particulars: NF54, 48 h.
Series [6] relates to Leishmania donovani. Kind of series: Antitrypanosomal activity against Leishmania donovani MHOM/ET/67/L82 incubated for 72 hrs by resazurin staining based analysis. The class given is functional, organism-based. To be noted: MHOM/ET/67/L82, 72 h.
For series [7], the system named is Trypanosoma cruzi. Kind of series: Antitrypanosomal activity against Trypanosoma cruzi Tulahuen C4 incubated for 4 days. Format: functional, organism-based. Particulars: Tulahuen C4, 96 h.
For series [8], the system named is Trypanosoma brucei rhodesiense. Kind of series: Antitrypanosomal activity against Trypanosoma brucei rhodesiense STIB 900 incubated for 72 hrs by resazurin staining based analysis. Format: functional, organism-based. To be noted: STIB 900, 72 h.
Series [9] deals with Fibroblast. Kind of series: Reduction in respiration rate in human Fibroblast cells assessed as decrease in coupling efficiency at 50 nM incubated up to 60 mins. Format: functional, cell-based.
The test system of series [10] is Fibroblast. Kind of series: Reduction in respiration rate in human Fibroblast cells assessed as decrease in coupling efficiency at > 200 nM incubated up to 60 mins. Format: functional, cell-based.
Series [11] is described as follows: Cytotoxicity against rat L6 cells assessed as cell viability. The class given is toxicity, cell-based.

pIC50, pKi: −log10 of the molar value. Calls of active or inactive are those of the source. No cut-off for these calls is given here. Non-standard residues stand in square brackets, D forms with d. Residues, ends and D or L forms follow the SMILES beside them. *: point of attachment. Hexenoyl(2E,4S-Me) = CC[C@H](C)/C=C/C(=O)*; Leu(3R-OH) = CC(C)[C@@H](O)[C@H](N)C(=O)O; NH((S)CH(Me)CH2NMe2) = C[C@@H](CN(C)C)N*; NH(2-morpholinoethyl) = C(CN1CCOCC1)N*; Pro(4S-Me) = C[C@@H]1CN[C@H](C(=O)O)C1; NH(1-CH2NMe2-cBu) = CN(C)CC1(N*)CCC1; Gly(octyl) = CCCCCCCC[C@H](N)C(=O)O; Oxazole4CO(2-Me) = Cc1nc(C(=O)*)co1; Benzoyl(4-F) = O=C(c1ccc(F)cc1)*; hCha = N[C@@H](CCC1CCCCC1)C(=O)O; Tle = CC(C)(C)[C@H](N)C(=O)O; NHCH2CH2NMe2 = CN(C)CCN*; Nle = CCCC[C@H](N)C(=O)O; Hexanoyl = CCCCCC(=O)*; Aib = CC(C)(N)C(=O)O; X2 = CN(CCN*)CC(F)F; βAla = NCCC(=O)O; tBu = CC(C)(C)*

With `N#CC(C#N)=NNc1ccc(OC(F)(F)F)cc1`, in series [1], the Ki entry is given as “Not_determined”.

On to `CCCCCC(=O)N1CCC[C@H]1C(=O)N[C@@H](CCC1CCCCC1)C(=O)N[C@@H](CC(C)C)C(=O)NC(C)(C)C(=O)N[C@@H](CC(C)C)C(=O)N[C@@H](CC(C)C)C(=O)NC(C)(C)C(=O)NC(C)(C)C(=O)NCCC(=O)N[C@@H](C)CN(C)C` (Hexanoyl-P[hCha]L[Aib]LL[Aib][Aib][βAla]-{NH((S)CH(Me)CH2NMe2)}), for which the pKi in series [1] is 6.86.

Regarding `CC(C)C[C@H](NC(=O)[C@H](CCC1CCCCC1)NC(=O)[C@@H]1CCCN1C(=O)c1ccc(F)cc1)C(=O)NC(C)(C)C(=O)N[C@@H](CC(C)C)C(=O)N[C@@H](CC(C)C)C(=O)NC(C)(C)C(=O)NC(C)(C)C(=O)NCCC(=O)NCCN(C)C` ({Benzoyl(4-F)}-P[hCha]L[Aib]LL[Aib][Aib][βAla]-NHCH2CH2NMe2), the pIC50 in series [2] is 8.41. Moreover, the pKi in series [1] is 6.34. Moreover, the outcome in series [3] was Active.

Turning to `CC(C)C[C@H](NC(=O)[C@H](CCC1CCCCC1)NC(=O)[C@@H]1CCCN1C(=O)c1ccc(F)cc1)C(=O)NC(C)(C)C(=O)N[C@@H](CC(C)C)C(=O)N[C@@H](CC(C)C)C(=O)NC(C)(C)C(=O)NC(C)(C)C(=O)NCCC(=O)NCCN(C)CC(F)F` ({Benzoyl(4-F)}-P[hCha]L[Aib]LL[Aib][Aib][βAla]-X2), the pIC50 in [2] is 6.41. The pKi in series [1] was 6.30. The outcome in series [3] was Active.

In turn, `CC(C)C[C@H](NC(=O)[C@H](CCC1CCCCC1)NC(=O)[C@@H]1CCCN1C(=O)c1ccc(F)cc1)C(=O)NC(C)(C)C(=O)N[C@@H](CC(C)C)C(=O)N[C@@H](CC(C)C)C(=O)NC(C)(C)C(=O)NC(C)(C)C(=O)NCCC(=O)NCCN1CCOCC1` ({Benzoyl(4-F)}-P[hCha]L[Aib]LL[Aib][Aib][βAla]-{NH(2-morpholinoethyl)}) gave a pIC50 in [2] of 7.14. Besides, the pKi in series [1] is 6.15.

In the case of `CC(C)C[C@H](NC(=O)[C@H](CC(C)C)NC(=O)C(C)(C)NC(=O)[C@@H](NC(=O)[C@H](CCC1CCCCC1)NC(=O)[C@@H]1CCCN1C(=O)c1ccc(F)cc1)[C@H](O)C(C)C)C(=O)NC(C)(C)C(=O)NC(C)(C)C(=O)NCCC(=O)N[C@@H](C)CN(C)C` ({Benzoyl(4-F)}-P[hCha][Leu(3R-OH)][Aib]LL[Aib][Aib][βAla]-{NH((S)CH(Me)CH2NMe2)}), in series [1], the pKi was 6.87. The IC50 at 72 h in series [4] came to 1230 nM. For the same molecule, the pIC50 in series [5] is 8.52; in series [6], 8.17; in [7], 5.95; in series [8] it was 8.89.

As to `CC(C)C[C@H](NC(=O)[C@H](CCC1CCCCC1)NC(=O)[C@@H]1C[C@H](C)CN1C(=O)c1ccc(F)cc1)C(=O)NC(C)(C)C(=O)N[C@@H](CC(C)C)C(=O)N[C@@H](CC(C)C)C(=O)NC(C)(C)C(=O)NC(C)(C)C(=O)NCCC(=O)N[C@@H](C)CN(C)C` ({Benzoyl(4-F)}-[Pro(4S-Me)][hCha]L[Aib]LL[Aib][Aib][βAla]-{NH((S)CH(Me)CH2NMe2)}), in series [1], the pKi was 7.08. The result in [9] and in series [10] was Active. For the same molecule, the IC50 at 72 h in series [4] was 266 nM. The pIC50 is 8.89 in [5], 9.47 in [6], 8.41 in [7] and 9.52 in series [8].

As to `CC(C)C[C@H](NC(=O)[C@H](CC(C)C)NC(=O)C(C)(C)NC(=O)[C@@H](NC(=O)[C@H](CCC1CCCCC1)NC(=O)[C@@H]1C[C@H](C)CN1C(=O)c1ccc(F)cc1)[C@H](O)C(C)C)C(=O)NC(C)(C)C(=O)NC(C)(C)C(=O)NCCC(=O)N[C@@H](C)CN(C)C` ({Benzoyl(4-F)}-[Pro(4S-Me)][hCha][Leu(3R-OH)][Aib]LL[Aib][Aib][βAla]-{NH((S)CH(Me)CH2NMe2)}), in series [1], the pKi is 7.26. Besides, the outcome in series [9] and in series [10] was Active. For the same molecule, the IC50 at 72 h in series [4] was found to be 1340 nM. Moreover, the pIC50 in series [5] is 8.47; in [6], 8.00; in series [7], 6.37; in [8], 9.20.

As for `CC[C@H](C)/C=C/C(=O)N1CCC[C@H]1C(=O)N[C@@H](CCC1CCCCC1)C(=O)N[C@H](C(=O)NC(C)(C)C(=O)N[C@@H](CC(C)C)C(=O)N[C@@H](CC(C)C)C(=O)NC(C)(C)C(=O)NC(C)(C)C(=O)NCCC(=O)N[C@@H](C)CN(C)C)[C@H](O)C(C)C` ({Hexenoyl(2E,4S-Me)}-P[hCha][Leu(3R-OH)][Aib]LL[Aib][Aib][βAla]-{NH((S)CH(Me)CH2NMe2)}), the pKi in series [1] was 7.54. In addition, in series [4], the IC50 at 72 h was determined as 208 nM. Moreover, the pIC50 in series [5] is 9.28; in [6] it was 9.28; in series [7], 6.74; in series [8] it was 9.25.

For `CCCCCCCC[C@H](NC(=O)[C@@H]1C[C@H](C)CN1C(=O)/C=C/[C@@H](C)CC)C(=O)N[C@H](C(=O)NC(C)(C)C(=O)N[C@@H](CC(C)C)C(=O)N[C@@H](CC(C)C)C(=O)NC(C)(C)C(=O)NC(C)(C)C(=O)NCCC(=O)N[C@@H](C)CN(C)C)[C@H](O)C(C)C` ({Hexenoyl(2E,4S-Me)}-[Pro(4S-Me)][Gly(octyl)][Leu(3R-OH)][Aib]LL[Aib][Aib][βAla]-{NH((S)CH(Me)CH2NMe2)}), the pKi in series [1] was 7.28. The IC50 at 72 h in [4] is 77 nM. Besides, the pIC50 is 9.47 in series [5], 9.16 in series [6], 7.62 in series [7] and 9.47 in [8].

On to `CC[C@H](C)/C=C/C(=O)N1C[C@@H](C)C[C@H]1C(=O)N[C@@H](CCC1CCCCC1)C(=O)N[C@@H](CC(C)C)C(=O)NC(C)(C)C(=O)N[C@@H](CC(C)C)C(=O)N[C@@H](CC(C)C)C(=O)NC(C)(C)C(=O)NC(C)(C)C(=O)NCCC(=O)N[C@@H](C)CN(C)C` ({Hexenoyl(2E,4S-Me)}-[Pro(4S-Me)][hCha]L[Aib]LL[Aib][Aib][βAla]-{NH((S)CH(Me)CH2NMe2)}), for which the pKi in [1] was 6.97. Further, the outcome in [10] was Active. Moreover, in [4], the IC50 at 72 h came to 157 nM. Moreover, the pIC50 was 9.16 in series [5], 8.89 in series [6], 7.37 in [7] and 9.59 in series [8].

`Cc1nc(C(=O)N2CCC[C@H]2C(=O)N[C@@H](COC(C)(C)C)C(=O)N[C@@H](CC(C)C)C(=O)NC(C)(C)C(=O)N[C@@H](CC(C)C)C(=O)N[C@@H](CC(C)C)C(=O)NC(C)(C)C(=O)NC(C)(C)C(=O)NCCC(=O)NC2(CN(C)C)CCC2)co1` ({Oxazole4CO(2-Me)}-PS(tBu)L[Aib]LL[Aib][Aib][βAla]-{NH(1-CH2NMe2-cBu)}): the negative logarithm of the IC50 (pIC50) was 8.41 in series [2]; 6.57 in [5]; 6.78 in series [6]; less than 5.06 in series [11]; 5.19 in series [7]. In addition, the pKi in series [1] was 4.74.

Consider `Cc1nc(C(=O)N2CCC[C@H]2C(=O)N[C@@H](Cc2c[nH]c3ccccc23)C(=O)N[C@@H](CC(C)C)C(=O)NC(C)(C)C(=O)N[C@@H](CC(C)C)C(=O)N[C@@H](CC(C)C)C(=O)NC(C)(C)C(=O)NC(C)(C)C(=O)NCCC(=O)NC2(CN(C)C)CCC2)co1` ({Oxazole4CO(2-Me)}-PWL[Aib]LL[Aib][Aib][βAla]-{NH(1-CH2NMe2-cBu)}), for which the pIC50 in series [2] is 8.89; in [5] it was 7.74; in [6], 7.51; in series [7], 5.57.

For the molecule `CCCC[C@H](NC(=O)[C@@H]1CCCN1C(=O)c1coc(C)n1)C(=O)N[C@@H](CC(C)C)C(=O)NC(C)(C)C(=O)N[C@@H](CC(C)C)C(=O)N[C@@H](CC(C)C)C(=O)NC(C)(C)C(=O)NC(C)(C)C(=O)NCCC(=O)NC1(CN(C)C)CCC1` ({Oxazole4CO(2-Me)}-P[Nle]L[Aib]LL[Aib][Aib][βAla]-{NH(1-CH2NMe2-cBu)}), the pIC50 in [2] is 8.19; in [5], 6.93; in series [6], 5.82; in [11], less than 5.06; in series [7], 5.23.

Regarding `Cc1nc(C(=O)N2CCC[C@H]2C(=O)N[C@H](C(=O)N[C@@H](CC(C)C)C(=O)NC(C)(C)C(=O)N[C@@H](CC(C)C)C(=O)N[C@@H](CC(C)C)C(=O)NC(C)(C)C(=O)NC(C)(C)C(=O)NCCC(=O)NC2(CN(C)C)CCC2)C(C)(C)C)co1` ({Oxazole4CO(2-Me)}-P[Tle]L[Aib]LL[Aib][Aib][βAla]-{NH(1-CH2NMe2-cBu)}), the negative-log IC50 (pIC50) in series [2] was 8.39; in series [5], 6.67; in series [6], 5.92; in series [11] it was less than 5.05; in series [7], 5.19. The pKi in [1] was 4.79.

Turning to `Cc1nc(C(=O)N2CCC[C@H]2C(=O)N[C@@H](CCC2CCCCC2)C(=O)N[C@@H](CC(C)C)C(=O)NC(C)(C)C(=O)N[C@@H](CC(C)C)C(=O)N[C@@H](CC(C)C)C(=O)NC(C)(C)C(=O)NC(C)(C)C(=O)NCCC(=O)NC2(CN(C)C)CCC2)co1` ({Oxazole4CO(2-Me)}-P[hCha]L[Aib]LL[Aib][Aib][βAla]-{NH(1-CH2NMe2-cBu)}), the pIC50 is 9.12 in series [2], 8.32 in series [5], 7.96 in [6] and 6.71 in series [7].
